Source: publication PMC12615753, “Glutathione as a taste modulator: molecular mechanisms of interaction with umami and sweet taste receptors” (Food Chemistry: Molecular Sciences, 2025)

Target: T1, hTAS1R1 Q278K/rTAS1R3 (Homo sapiens, UniProt Q7RTX1, Q278K)
T1 construct: UniProtKB number Q7RTX1–1); expressed in transfected cells; host or cells: HEK293T/17 (ATCC CRL-11268)
T1 sequence (Q7RTX1 21-841 Q278K): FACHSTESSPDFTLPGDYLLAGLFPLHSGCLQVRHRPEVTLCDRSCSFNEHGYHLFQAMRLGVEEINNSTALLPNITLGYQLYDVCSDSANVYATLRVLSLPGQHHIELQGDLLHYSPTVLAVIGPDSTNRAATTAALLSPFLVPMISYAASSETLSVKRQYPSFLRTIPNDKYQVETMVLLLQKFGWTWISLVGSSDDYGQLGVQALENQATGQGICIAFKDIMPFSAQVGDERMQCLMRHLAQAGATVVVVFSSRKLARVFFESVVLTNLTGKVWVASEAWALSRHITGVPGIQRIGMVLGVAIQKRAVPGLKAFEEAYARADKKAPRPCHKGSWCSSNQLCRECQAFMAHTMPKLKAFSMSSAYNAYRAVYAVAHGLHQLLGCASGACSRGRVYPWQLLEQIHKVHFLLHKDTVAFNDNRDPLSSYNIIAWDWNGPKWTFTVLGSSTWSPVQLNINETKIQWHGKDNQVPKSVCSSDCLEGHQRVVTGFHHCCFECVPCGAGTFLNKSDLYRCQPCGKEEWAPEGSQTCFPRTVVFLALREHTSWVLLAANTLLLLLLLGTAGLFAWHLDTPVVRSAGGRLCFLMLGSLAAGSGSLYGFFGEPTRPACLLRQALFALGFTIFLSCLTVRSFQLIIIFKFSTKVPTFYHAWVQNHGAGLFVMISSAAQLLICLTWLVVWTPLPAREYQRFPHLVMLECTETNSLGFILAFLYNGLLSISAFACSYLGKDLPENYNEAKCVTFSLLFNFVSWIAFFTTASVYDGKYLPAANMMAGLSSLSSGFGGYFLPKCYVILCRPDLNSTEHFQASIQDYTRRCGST
T1 sequence (Q923K1 21-858 partner): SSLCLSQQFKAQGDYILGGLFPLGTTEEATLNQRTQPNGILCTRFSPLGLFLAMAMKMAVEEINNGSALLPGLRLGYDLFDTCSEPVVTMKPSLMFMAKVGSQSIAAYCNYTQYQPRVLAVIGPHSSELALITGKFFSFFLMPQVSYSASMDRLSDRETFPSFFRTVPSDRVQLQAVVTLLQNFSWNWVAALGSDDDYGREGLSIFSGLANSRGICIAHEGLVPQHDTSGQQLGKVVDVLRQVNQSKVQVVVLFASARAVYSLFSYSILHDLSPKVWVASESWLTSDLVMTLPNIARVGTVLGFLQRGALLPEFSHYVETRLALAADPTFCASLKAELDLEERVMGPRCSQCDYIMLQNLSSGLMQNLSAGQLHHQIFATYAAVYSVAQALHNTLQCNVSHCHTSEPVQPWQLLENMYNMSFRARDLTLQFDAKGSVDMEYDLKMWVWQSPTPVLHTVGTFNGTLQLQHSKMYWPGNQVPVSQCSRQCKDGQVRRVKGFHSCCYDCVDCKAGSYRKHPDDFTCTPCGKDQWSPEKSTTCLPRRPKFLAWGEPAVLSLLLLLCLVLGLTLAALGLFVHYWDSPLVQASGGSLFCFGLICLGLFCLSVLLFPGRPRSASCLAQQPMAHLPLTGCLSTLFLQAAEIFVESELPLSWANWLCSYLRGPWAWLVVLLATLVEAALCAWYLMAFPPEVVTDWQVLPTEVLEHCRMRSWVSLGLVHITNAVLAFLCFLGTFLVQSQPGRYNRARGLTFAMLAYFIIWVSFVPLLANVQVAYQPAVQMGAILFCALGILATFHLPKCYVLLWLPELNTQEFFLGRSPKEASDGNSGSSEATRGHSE
Assay: Calcium assay, hTAS1R1 mutant co-expressed with rTAS1R3
Format: cell-based, rat

## N[C@@H](CCC(=O)N[C@@H](CS)C(=O)NCC(=O)O)C(=O)O [GSH, γ-L-glutamyl-L-cysteinyl-glycine]
  EC50: 5.66 ± 0.31 mM
Q278K
  effect of the added compound (1 mM) on the response to L-Glu: synergy was observed
  response to the agonist alone, vs WT: significantly increased the initial amplitude
Q278K, GSH
  Max ∆F/F0: 1.10 ± 0.02
  R1 = mutant EC50/WT EC50: 2.2
